Source: patent US6110943A, “N-substituted (thiophen-2-yl)-piperidines and tetrahydropyridines as serotonergic agents” (American Home Products Corporation, priority 1999, dated 2000)

How the values were obtained:
[1] = target: T1, 5-HT1A serotonin receptor (Rattus norvegicus, UniProt P19327); assay: displacement of [^3 H] 8-OHDPAT (dipropylaminotetralin) from the 5-HT1A serotonin receptor (Hall et al., J. Neurochem. 44, 1685 (1985)); settings: read-out: 5-HT1A Binding (IC50)
T1 construct: following the procedure of Hall et al., J. Neurochem; 44, 1685 (1985); from tissue
T1 sequence (P19327 1-422): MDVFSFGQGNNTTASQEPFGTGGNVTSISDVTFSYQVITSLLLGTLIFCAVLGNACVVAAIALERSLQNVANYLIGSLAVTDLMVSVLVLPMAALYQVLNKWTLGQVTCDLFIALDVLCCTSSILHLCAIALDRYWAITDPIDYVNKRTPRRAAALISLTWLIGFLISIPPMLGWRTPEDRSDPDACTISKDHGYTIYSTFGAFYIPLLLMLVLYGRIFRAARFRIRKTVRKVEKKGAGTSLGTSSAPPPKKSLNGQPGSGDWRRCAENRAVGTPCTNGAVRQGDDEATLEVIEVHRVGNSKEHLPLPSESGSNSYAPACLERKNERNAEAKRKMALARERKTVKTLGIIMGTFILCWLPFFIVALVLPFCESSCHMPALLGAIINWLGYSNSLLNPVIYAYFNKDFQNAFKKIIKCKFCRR
Experimental: Representative compounds of the present invention were evaluated and determined to have high affinity for the serotonin 5-HT1A receptor by testing the compound's ability to displace [^3 H] 8-OHDPAT (dipropylaminotetralin) from the 5-HT1A serotonin receptor following the procedure of Hall et al., J. Neurochem. 44, 1685 (1985). […] The anxiolytic activity of buspirone is believed to be, at least partially, due to its 5-HT1A receptor affinity (Vander Maclen et al., Eur. J. Pharmacol. 1986,129 (1-2)[…]).

[2] = test system: 5-HT1A serotonin receptor subtype; settings: buspirone as standard for anxiolytic activity; cited from earlier work

SMILES | IC50 [1] | 5-HT1A receptor affinity (in words) [2]
COc1ccsc1C1(O)CCN(C[C@H](Cc2ccccc2)NC(=O)OC(C)(C)C)CC1 [Example 1, (S)-{1-Benzyl-2-[4-hydroxy-4-(3-methoxy-thiophen-2-yl)-piperidin-1-yl]-ethyl}-carbamic acid tert-butyl ester] | 80 nM | 
O=C1CC2(CCCC2)CC(=O)N1CCCCN1CCN(c2ncccn2)CC1 [buspirone] |  | potent affinity
COc1ccsc1C1CCN(C[C@H](Cc2ccccc2)NC(=O)C2CCCCC2)CC1 [Example 4, Cyclohexanecarboxylic acid {(1S)-1-benzyl-2-[4-(3-methoxy-thiophen-2-yl)-piperidin-1-yl]-ethyl}-amide] | 1.1 nM | 
COc1ccsc1C1=CCN(C[C@H](Cc2ccccc2)NC(=O)OC(C)(C)C)CC1 [Example 2, (S)-{1-Benzyl-2-[4-(3-methoxy-thiophen-2-yl)-3,6-dihydro-2H-pyridin-1-yl]-ethyl}-carbamic acid tert-butyl ester] | 1.6 nM | 
COc1ccsc1C1=CCN(C[C@H](Cc2ccccc2)NC(=O)C2CCCCC2)CC1 [Example 3, (S)-cyclohexanecarboxylic acid {1-benzyl-2-[4-(3-methoxy-thiophen-2-yl)-3,6-dihydro-2H-pyridin-1-yl]-ethyl}-amide] | 0.78 nM | 
